Assay results from patent US20240316047A1, “INHIBITORS OF RNA HELICASE DHX9 AND USES THEREOF” (ACCENT THERAPEUTICS, INC., priority 2022, published 2024).

Molecular target: Human recombinant DHX9 protein (Homo sapiens (Human), UniProt Q08211)
Assay: DHX9 ATPase assay (ADP-Glo)
Format: biochemical
Details: for IC50: read-out: DHX9 Biochemical Inflection Point

Human recombinant DHX9 protein, sequence (Q08211 whole entry): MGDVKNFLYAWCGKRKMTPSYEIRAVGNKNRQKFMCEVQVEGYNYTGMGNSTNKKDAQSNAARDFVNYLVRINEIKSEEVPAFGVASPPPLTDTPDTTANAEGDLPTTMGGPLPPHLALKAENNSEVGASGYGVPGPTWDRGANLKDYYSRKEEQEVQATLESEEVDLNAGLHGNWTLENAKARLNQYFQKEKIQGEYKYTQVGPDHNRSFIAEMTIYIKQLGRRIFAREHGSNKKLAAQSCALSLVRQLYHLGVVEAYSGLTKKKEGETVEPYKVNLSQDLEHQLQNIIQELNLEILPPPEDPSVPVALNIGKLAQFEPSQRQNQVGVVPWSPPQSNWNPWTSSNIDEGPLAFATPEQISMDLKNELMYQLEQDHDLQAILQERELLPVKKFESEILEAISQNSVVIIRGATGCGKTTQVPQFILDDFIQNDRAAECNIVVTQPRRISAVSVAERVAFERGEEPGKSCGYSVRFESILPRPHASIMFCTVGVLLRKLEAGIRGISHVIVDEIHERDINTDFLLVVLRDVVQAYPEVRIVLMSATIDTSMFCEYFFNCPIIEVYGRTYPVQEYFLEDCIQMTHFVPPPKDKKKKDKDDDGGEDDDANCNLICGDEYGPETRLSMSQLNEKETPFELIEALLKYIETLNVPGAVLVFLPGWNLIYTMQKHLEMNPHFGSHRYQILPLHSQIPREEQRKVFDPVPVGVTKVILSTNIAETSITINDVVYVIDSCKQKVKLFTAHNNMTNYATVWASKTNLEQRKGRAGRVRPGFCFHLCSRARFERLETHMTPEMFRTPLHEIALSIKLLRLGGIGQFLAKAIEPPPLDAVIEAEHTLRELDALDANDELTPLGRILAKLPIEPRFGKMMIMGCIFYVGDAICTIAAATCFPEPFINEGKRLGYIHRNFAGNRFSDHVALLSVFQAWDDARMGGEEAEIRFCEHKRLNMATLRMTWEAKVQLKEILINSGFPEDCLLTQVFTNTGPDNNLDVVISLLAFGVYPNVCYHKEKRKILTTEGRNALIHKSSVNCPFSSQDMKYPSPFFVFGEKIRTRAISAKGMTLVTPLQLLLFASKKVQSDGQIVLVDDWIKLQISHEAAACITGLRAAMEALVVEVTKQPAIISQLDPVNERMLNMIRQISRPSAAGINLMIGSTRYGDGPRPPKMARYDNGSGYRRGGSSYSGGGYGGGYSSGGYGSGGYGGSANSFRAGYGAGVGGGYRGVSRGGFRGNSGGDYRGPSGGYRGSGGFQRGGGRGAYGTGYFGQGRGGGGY

SMILES | DHX9 Biochemical Max Inhibition | IC50
Cc1sc(C(=O)Nc2cc(Cl)cc(NS(C)(=O)=O)c2)cc1-c1ncc(F)cc1-c1cncc(F)c1 [Example 607] | 75.9 | 13.1 nM
COc1ccc2cc(C(=O)Nc3cc(Cl)cc(NS(C)(=O)=O)c3)sc2c1 [Example 327] | 63.3% | 264 nM
CS(=O)(=O)Nc1cc(Br)cc(NC(=O)C2CCC2c2ccccc2)c1 (stereo not drawn) [Example 12] | 58.6% | 84700 nM
CS(=O)(=O)Nc1cc(Br)cc(NC(=O)c2cc(-c3ncccc3OCc3ccccc3)cs2)c1 [Example 32] | 56.3% | 38.3 nM
CCOc1cnc(-n2cc(C(=O)Nc3cc(Cl)cc(NS(C)(=O)=O)c3)cc2C)nc1 [Example 208] | 79.9% | 15.5 nM
Cn1cc(C(=O)Nc2cc(Cl)cc(NS(C)(=O)=O)c2)cc1-c1ncc(OC(C)(C)C)cn1 [Example 556] | 64.8 | 20.6 nM
CS(=O)(=O)Nc1cc(Cl)cc(NC(=O)c2cc3c(F)cccc3s2)c1 [Example 296] | 69.9% | 125 nM
Cc1sc(C(=O)Nc2cc(Cl)cc(NS(C)(=O)=O)c2)cc1-c1ccc(C2CN(CC(F)(F)F)C2)cn1 [Example 710] | 69 | 14.5 nM
Cc1sc(C(=O)Nc2cc(Cl)cc(NS(C)(=O)=O)c2)cc1-c1ncccc1OC(C)c1cc(F)cc(F)c1 (single isomer, unassigned) [Example 633] | 71.2 | 52.6 nM
Cc1sc(C(=O)Nc2cc(Br)cc(NS(C)(=O)=O)c2)cc1-c1ccccn1 [Example 23] | 69% | 3.2 nM
Cc1sc(C(=O)Nc2cc(Cl)cc(NS(C)(=O)=O)c2)cc1-c1ncccc1OC(C)c1cc(F)cc(F)c1 (single isomer, unassigned) [Example 632] | 71.5 | 241 nM
CC(C)(C)Oc1cnc(-c2csc(C(=O)Nc3cc(Cl)cc(NS(C)(=O)=O)c3)c2)nc1 [Example 379] | 65.4% | 41.8 nM
Cn1cc(C(=O)Nc2cc(Cl)cc(NS(C)(=O)=O)c2)cc1-c1ncc(C(F)(F)F)cn1 [Example 571] | 71.3 | 21.1 nM
Cn1cc(C(=O)Nc2cc(Cl)cc(NS(C)(=O)=O)c2)cc1-c1ncc(F)cc1C#N [Example 546] | 73.6 | 13.1 nM
CS(=O)(=O)Nc1cc(Br)cc(NC(=O)c2cnn(-c3ccccc3OCc3ccccc3)c2)c1 [Example 51] | 61.1% | 145 nM
CCS(=O)(=O)Nc1cc(Cl)cc(NC(=O)c2cc(-c3ncc(C(F)(F)F)cn3)c(C)s2)c1 [Example 366] | 76.2% | 46.7 nM
CC(=O)N1CCN(c2cc(F)cnc2-c2cc(C(=O)Nc3cc(Cl)cc(NS(C)(=O)=O)c3)sc2C)CC1 [Example 504] | 65.9 | 23.5 nM

SMILES | DHX9 Biochemical Max Inhibition | IC50
Cc1sc(C(=O)Nc2cc(Cl)cc(NS(C)(=O)=O)c2)cc1-c1ccc(F)cn1 [Example 35] | 75.7% | 3.9 nM
Cc1sc(C(=O)Nc2cc(Cl)cc(NS(C)(=O)=O)c2)cc1-c1ncc(N2CC[Si](C)(C)CC2)cc1F [Example 473] | 54.5 | 313 nM
CN1CC(Oc2cnc(-c3cc(C(=O)Nc4cc(Cl)cc(NS(C)(=O)=O)c4)cn3CC(F)(F)F)c(F)c2)C1 [Example 638] | 70.5 | 13.9 nM
CS(=O)(=O)Nc1cc(Cl)cc(NC(=O)c2cc(-c3ccc(C(F)(F)F)cn3)cs2)c1 [Example 370] | 64.3% | –
COc1cc(F)cnc1-c1cc(C(=O)Nc2cc(Cl)cc(NS(C)(=O)=O)c2)sc1C [Example 351] | 80.6% | 15.5 nM
Cc1noc(C)c1COc1cc(F)cnc1-c1cc(C(=O)Nc2cc(Cl)cc(NS(C)(=O)=O)c2)cn1C [Example 725] | 74 | 36.5 nM
CC(C)Oc1cnc(-c2csc(C(=O)Nc3cc(Cl)cc(NS(C)(=O)=O)c3)c2)c(F)c1 [Example 458] | 60.2 | –
CCS(=O)(=O)Nc1cc(Cl)cc(NC(=O)c2cc(C)n(-c3ncc(F)cc3F)c2)c1 [Example 445] | 70.5 | 80.8 nM
Cc1sc(C(=O)Nc2cc(Cl)cc(NS(C)(=O)=O)c2)cc1N1C(=O)N(C)C(C)(c2ccccn2)C1=O (stereo not drawn) [Example 660] | 67.1 | 2120 nM
CS(=O)(=O)Nc1cc(Cl)cc(NC(=O)c2cc(-c3ncc(F)cc3OCc3cncc(F)c3)cs2)c1 [Example 225] | 74.2% | 6.9 nM
Cc1sc(C(=O)Nc2cc(Cl)cc(NS(C)(=O)=O)c2)cc1-c1ncc(F)cc1-c1cnco1 [Example 705] | 55.6 | 19.2 nM
Cc1sc(C(=O)Nc2cc(Cl)cc(NS(C)(=O)=O)c2)cc1-c1ncc(C#N)cn1 [Example 585] | 70.9 | 22.9 nM
Cc1cccnc1-c1csc(C(=O)Nc2cc(F)cc(NS(C)(=O)=O)c2)c1 [Example 334] | 81.5% | 10.9 nM
CS(=O)(=O)Nc1cc(F)cc(NC(=O)c2cc(-c3ncccc3OCc3ccccc3)cs2)c1 [Example 214] | 75.9% | 88 nM
CCS(=O)(=O)Nc1cc(Cl)cc(NC(=O)c2cc(-c3ncc(C(F)(F)F)cc3C)c(C)s2)c1 [Example 700] | 85.6 | 153 nM
Cc1sc(C(=O)Nc2cc(Cl)cc(NS(C)(=O)=O)c2)cc1-c1ncccn1 [Example 22] | 71% | 2.5 nM
Cc1cncc2cc(C(=O)Nc3cc(Cl)cc(NS(C)(=O)=O)c3)sc12 [Example 290] | 59.7% | 5590 nM

Results, then the molecule that gave them:

DHX9 Biochemical Max Inhibition | IC50 | SMILES
72.2 | 10.5 nM | Cc1cc(C(=O)Nc2cc(Cl)cc(NS(C)(=O)=O)c2)cn1-c1ncc(N2CCOCC2)cc1F [Example 412]
67.6% | 422 nM | Cc1cc(C)c2cc(C(=O)Nc3cc(Cl)cc(NS(C)(=O)=O)c3)cn2c1 [Example 328]
59.7% | 27.9 nM | CS(=O)(=O)Nc1cc(Cl)cc(NC(=O)c2cnn(-c3cc(N4CCOCC4)ccn3)c2)c1 [Example 91]
64.7 | 13.6 nM | Cn1cc(C(=O)Nc2cc(Cl)cc(NS(C)(=O)=O)c2)cc1-c1ncc(N2CCC3(CC2)COC3)cc1F [Example 475]
68.4 | 70 nM | CS(=O)(=O)Nc1cc(Cl)cc(NC(=O)c2cnn(-c3ncccc3Oc3cccnc3)c2)c1 [Example 676]
72.9% | 240 nM | CS(=O)(=O)Nc1cc(Cl)cc(NC(=O)c2cc(-c3ccc(F)cn3)n(CC(F)F)c2)c1 [Example 286]
57.2% | 17.6 nM | Cn1cc(C(=O)Nc2cc(Cl)cc(NS(C)(=O)=O)c2)cc1-c1ccccc1 [Example 109]
66.5% | 139 nM | Cc1cccn2cc(C(=O)Nc3cc(Cl)cc(NS(C)(=O)=O)c3)cc12 [Example 329]
61.9% | 88 nM | CS(=O)(=O)Nc1cc(Cl)cc(NC(=O)c2cc3cnccn3c2)c1 [Example 330]
69.2% | 220 nM | CS(=O)(=O)Nc1cc(Cl)cc(NC(=O)c2cnn(C3CC4(C3)CN(CC(F)(F)F)C4)c2)c1 [Example 312]
62.3 | 6.6 nM | Cn1cc(C(=O)Nc2cc(Cl)cc(NS(C)(=O)=O)c2)cc1-c1ncc(N2CC3(C2)CC(F)(F)C3)cn1 [Example 492]
70.3% | 102 nM | CC(=O)NC1CC2(C1)CC(n1cc(C(=O)Nc3cc(Cl)cc(NS(C)(=O)=O)c3)cn1)C2 (stereo not drawn) [Example 310]
74.9 | 9 nM | COCc1ccc(-n2cc(C(=O)Nc3cc(Cl)cc(NS(C)(=O)=O)c3)cc2C)nc1 [Example 447]
73.2 | 54.3 nM | CS(=O)(=O)Nc1cc(Cl)cc(NC(=O)c2cc(C3CC3)n(-c3ncc(F)cn3)c2)c1 [Example 451]
71 | 9 nM | CN1CC[C@@H](Oc2cnc(-c3cc(C(=O)Nc4cc(Cl)cc(NS(C)(=O)=O)c4)cn3CC(F)(F)F)nc2)C1 [Example 641]
62.9% | 56.6 nM | CS(=O)(=O)Nc1cc(Cl)cc(NC(=O)c2cnn(-c3ncccc3OCc3cnco3)c2)c1 [Example 66]
49.8% | 258 nM | CS(=O)(=O)Nc1cc(Br)cc(NC(=O)c2cnn(-c3ccc(C(F)(F)F)cn3)c2)c1 [Example 43]
72.6% | 5.5 nM | CS(=O)(=O)Nc1cc(Cl)cc(NC(=O)c2cnn(-c3ncccc3OCc3cccc(F)c3)c2)c1 [Example 65]
62.6% | 47.9 nM | CS(=O)(=O)Nc1cc(Cl)cc(NC(=O)c2cnn(-c3ccccn3)c2)c1 [Example 37]
58.4 | 122 nM | CS(=O)(=O)Nc1cc(Cl)cc(NC(=O)c2cnn(-c3ncccc3Oc3cccc(F)c3)c2)c1 [Example 427]
52.2% | 1910 nM | Cc1ccc(C#N)cc1-n1cc(C(=O)Nc2cc(Br)cc(NS(C)(=O)=O)c2)cn1 [Example 53]
70.4% | 143 nM | CN1CCC(n2cc(C(=O)Nc3cc(Cl)cc(NS(C)(=O)=O)c3)cn2)CC1=O (stereo not drawn) [Example 307]
58.3 | 50.6 nM | Cc1cc(C(=O)Nc2cc(Cl)cc(NS(C)(=O)=O)c2)cn1-c1ncc(N2CCC3(C2)CC3(F)F)cc1F (stereo not drawn) [Example 414]
56.7% | 119 nM | CS(=O)(=O)Nc1cc(Cl)cc(NC(=O)c2cnn(-c3ccccc3Oc3cccnc3)c2)c1 [Example 264]
